This experiment deals with Spodoptera littoralis. As to the kind of experiment: Insecticidal bioassay screening (castor leaf dip) on second and fourth instar larvae. In kind it is in vivo. The conditions noted are these: for Toxicity index %: 72 hrs, Diflubenzuron's LC50 / the compound's LC50 × 100; for LC90 (mg/L) at 95%: after 72 hrs of treatment, treated castor leaves; for LC50: Spodoptera littoralis, in Gossypium hirsutum, foliar, 72 h. The protocol: Five concentrations (200, 100, 50, 25, 12.5 ppm) were designed for this synthetic compound and the reference Diflubenzuron compound as the dynamic ingredients based on mg/L via diluting the commercial formulation.
In this experiment, castor leaves are immersed in each of the previously prepared concentrations of the components for 10 seconds and then left to dry for 60 minutes. Larvae of the second and fourth instars of each checked strain are prepared with treated leaves in gauze-covered glass containers for 72 hrs. An untreated control is made in which leaves are dipped in triton x-100 and distilled water only. Then the preserved leaves were removed & fresh, untreated leaves were provided for 72 hours. Three replicates (10 larvae each) were checked for each concentration. Daily inspection was carried out for all treatments and mortality percentages were recorded 3 days (72 hours) after treatment. The average mortality percentage was corrected employing Abbott's formula. The corrected mortality rate for each of the previously synthesized compounds is statistically calculated according to Finney (1970). Through this rate, the corresponding concentration test lines (LDP lines) are assessed.

The mark [1] stands for this setting: read-out: LC50 (mg/L) at 95%, 2nd instar larvae, after 72 hrs of treatment, treated castor leaves.
The mark [2] stands for this setting: read-out: LC50 (mg/L) at 95%, 4th instar larvae, after 72 hrs of treatment, treated castor leaves.

Values after ≈ are worked out from the molar mass of the structure shown. Like-named read-outs stand apart in the source and are kept apart here.

On to `O=C(NC(=O)c1c(F)cccc1F)Nc1ccc(Cl)cc1` [Diflubenzuron], for which the Toxicity index % is recorded as 100% (2nd instar larvae) and 100% (4th instar larvae). Further, the “LC90 (mg/L) at 95%” value runs as follows: (2nd instar larvae) 520.0 mg/L (≈ 1670 µM); (4th instar larvae) 1540.5 mg/L (≈ 4960 µM). Moreover, the LC50 is, setting by setting: under setting [1], 45.2 mg/L (≈ 145 µM); under setting [2], 144 mg/L (≈ 464 µM).
For the molecule `CCOC(=O)c1c(NC(=S)NC(=O)c2ccc(Cl)cc2Cl)sc2c1CCCC2` [Ethyl-2-{[(2,4-dichlorobenzoyl)carbamothioyl]amino}-4,5,6,7-tetrahydro-1-benzothiophene-3-carboxylate], the LC50 by setting is: under setting [1], roughly 270 mg/L (≈ 591 µM); under setting [2], roughly 631 mg/L (≈ 1380 µM).

Values taken from patent US12161116B1, “Ethyl-2-{[(2,4-dichlorobenzoyl carbamothioyl]amino}-4,5,6,7-tetrahydro-1-benzothiophene-3-carboxylate as an eco-friendly insecticidal agent against Spodoptera littoralis (boisd.)” (priority 2023, dated 2024).
